Source: PubChem BioAssay AID248 (DTP/NCI, 2004)
Several values for one entry are separate records, joined by “and”; a condition that tells them apart may be missing. Identical values can stand only once. Toxic doses and inconclusive results are not listed.

Test system: L1210 leukemia ip in BDF1 mice, survival T/C
Experiment: NCI In Vivo Anticancer Drug Screen. Data for tumor model L1210 Leukemia (intraperitoneal) in B6D2F1 (BDF1) mice
Settings: endpoint: mean survival time, higher = longer survival
Summary of the method: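 Transplantable tumor model; survival measured in treated vs vehicle control mice. Value = treated/control.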

[1] = dose: 100.0 mg/kg/injection, schedule: Q01DX001 (ip), vehicle: saline
[2] = dose: 100.0 mg/kg/injection, schedule: Q01DX009 (ip), vehicle: saline with Tween-80
[3] = dose: 100.0 mg/kg/injection, schedule: Q04DX003 (ip), vehicle: saline with Tween-80
[4] = dose: 200.0 mg/kg/injection, schedule: Q01DX001 (ip), vehicle: saline
[5] = dose: 200.0 mg/kg/injection, schedule: Q01DX009 (ip), vehicle: saline with Tween-80
[6] = dose: 200.0 mg/kg/injection, schedule: Q04DX003 (ip), vehicle: saline with Tween-80
[7] = dose: 400.0 mg/kg/injection, schedule: Q01DX001 (ip), vehicle: saline
[8] = dose: 400.0 mg/kg/injection, schedule: Q01DX009 (ip), vehicle: saline with Tween-80
[9] = dose: 400.0 mg/kg/injection, schedule: Q04DX003 (ip), vehicle: saline with Tween-80
[10] = dose: 50.0 mg/kg/injection, schedule: Q01DX001 (ip), vehicle: saline
[11] = dose: 50.0 mg/kg/injection, schedule: Q01DX009 (ip), vehicle: saline with Tween-80
[12] = dose: 100.0 mg/kg/injection, schedule: Q01DX009 (ip), vehicle: saline
[13] = dose: 100.0 mg/kg/injection, schedule: Q04DX003 (ip), vehicle: saline
[14] = dose: 200.0 mg/kg/injection, schedule: Q04DX003 (ip), vehicle: saline
[15] = dose: 50.0 mg/kg/injection, schedule: Q01DX009 (ip), vehicle: saline
[16] = dose: 50.0 mg/kg/injection, schedule: Q01DX001 (ip), vehicle: carboxymethylcellulose (CMC)
[17] = dose: 100.0 mg/kg/injection, schedule: Q01DX001 (ip), vehicle: carboxymethylcellulose (CMC)
[18] = dose: 200.0 mg/kg/injection, schedule: Q01DX001 (ip), vehicle: carboxymethylcellulose (CMC)
[19] = dose: 400.0 mg/kg/injection, schedule: Q01DX001 (ip), vehicle: carboxymethylcellulose (CMC)
[20] = dose: 100.0 mg/kg/injection, schedule: Q04DX003 (ip), vehicle: Klucel (hydroxypropylcellulose) (HPC)
[21] = dose: 200.0 mg/kg/injection, schedule: Q04DX003 (ip), vehicle: Klucel (hydroxypropylcellulose) (HPC)

Compound: CC(=O)N(O)CCCC1NC(=O)C(CCCN(O)C(C)=O)NC1=O (configuration not stated)
- T/C [1]: 97 % of control
- T/C [2]: 100 % of control
- T/C [3]: 92 % of control
- T/C [4]: 95 % of control
- T/C [5]: 102 % of control
- T/C [6]: 92 % of control
- T/C [7]: 95 % of control
- T/C [8]: 105 % of control
- T/C [9]: 100 % of control

Compound: CCN=C(N)SCC
- T/C (dose: 100.0 mg/kg/injection, schedule: Q04DX002 (ip), vehicle: saline): 95 % of control
- T/C (dose: 200.0 mg/kg/injection, schedule: Q04DX002 (ip), vehicle: saline): 95 % of control

Compound: O=C(CSCCCCl)OCCSCCCCl
- T/C (dose: 17.5 mg/kg/injection, schedule: Q01DX Z (ip), vehicle: saline): 93 % of control
- T/C (dose: 70.0 mg/kg/injection, schedule: Q01DX Z (ip), vehicle: saline): 104 % of control

Compound: NCCCCc1nc(N)nc(N)c1-c1ccc(Cl)cc1
- T/C (dose: 25.0 mg/kg/injection, schedule: Q01DX001 (ip), vehicle: saline): 104 % of control
- T/C [10]: 96 % of control
- T/C [1]: 102 % of control

Compound: CCCCCCCCCCCCC/C=N/Nc1ccc([N+](=O)[O-])cc1[N+](=O)[O-]
- T/C [11]: 100 % of control
- T/C [2]: 93 % of control
- T/C [5]: 93 % of control

Compound: CN1CCCCC1CCN1c2ccccc2Sc2ccc(Br)cc21 (configuration not stated)
- T/C (dose: 3.12 mg/kg/injection, schedule: Q01DX009 (ip), vehicle: saline): 105 % of control
- T/C (dose: 6.25 mg/kg/injection, schedule: Q01DX009 (ip), vehicle: saline): 100 % of control
- T/C (dose: 12.5 mg/kg/injection, schedule: Q01DX009 (ip), vehicle: saline): 101 % of control

Compound: CCCCCC1(O)C2CCCC1CCC2 (configuration not stated)
- T/C [3]: 94 % of control
- T/C [6]: 97 % of control
- T/C [9]: 105 % of control

Compound: CCOC(=O)C(C)C(=O)C(=O)N=C(N)N (configuration not stated)
- T/C [12]: 102 % of control
- T/C [13]: 101 % of control and 103 % of control
- T/C (dose: 200.0 mg/kg/injection, schedule: Q01DX009 (ip), vehicle: saline): 100 % of control
- T/C [14]: 97 % of control
- T/C (dose: 400.0 mg/kg/injection, schedule: Q01DX009 (ip), vehicle: saline): 100 % of control
- T/C (dose: 400.0 mg/kg/injection, schedule: Q04DX003 (ip), vehicle: saline): 103 % of control and 104 % of control

Compound: COC(=O)C(NC(=O)C(NC(=O)Cc1ccccc1)SCc1ccccc1)=C(C)C (configuration not stated)
- T/C [13]: 95 % of control
- T/C [14]: 89 % of control

Compound: CN(C)/C=C1\C(=O)Nc2c1c(=O)n(C)c(=O)n2C
- T/C [15]: 93 % of control
- T/C [12]: 90 % of control

Compound: CCCN1CCc2cc(OC)c(OC)cc2C1Cc1ccc(OC)c(OC)c1 (configuration not stated)
- T/C (dose: 75.0 mg/kg/injection, schedule: Q01DX001 (ip), vehicle: other): 109 % of control
- T/C (dose: 150.0 mg/kg/injection, schedule: Q01DX001 (ip), vehicle: other): 102 % of control

Compound: O=C(N/N=C\c1ccc(N(CCCl)CCCl)cc1)c1ccccn1
- T/C [16]: 108 % of control
- T/C [17]: 108 % of control
- T/C [18]: 103 % of control
- T/C [19]: 100 % of control

Compound: CCN(CC)CCn1c(=O)c2ccccc2c2ccccc21
- T/C [10]: 108 % of control
- T/C [15]: 106 % of control
- T/C (dose: 50.0 mg/kg/injection, schedule: Q04DX003 (ip), vehicle: saline): 103 % of control
- T/C [1]: 104 % of control
- T/C [13]: 111 % of control
- T/C [14]: 107 % of control

Compound: C=CC1CN2CCC1CC2C(OC(C)=O)c1ccnc2ccc(OC)cc12 (configuration not stated)
- T/C [16]: 97 % of control
- T/C [17]: 101 % of control
- T/C [18]: 97 % of control
- T/C [19]: 92 % of control

Compound: C=CCn1c2c(c3ccccc31)CCC2
- T/C [11]: 86 % of control
- T/C [2]: 93 % of control

Compound: O=C(Nc1cccc(Cl)c1)Nc1cccc(C(F)(F)F)c1
- T/C (dose: 15.0 mg/kg/injection, schedule: Q01DX015 (ip), vehicle: carboxymethylcellulose (CMC)): 103 % of control
- T/C (dose: 30.0 mg/kg/injection, schedule: Q01DX015 (ip), vehicle: carboxymethylcellulose (CMC)): 103 % of control
- T/C (dose: 60.0 mg/kg/injection, schedule: Q01DX015 (ip), vehicle: carboxymethylcellulose (CMC)): 100 % of control
- T/C (dose: 120.0 mg/kg/injection, schedule: Q01DX015 (ip), vehicle: carboxymethylcellulose (CMC)): 103 % of control

Compound: Clc1ccc(C2SCCS2)c(Cl)c1
- T/C (dose: 100.0 mg/kg/injection, schedule: Q01DX009 (ip), vehicle: Klucel (hydroxypropylcellulose) (HPC)): 105 % of control
- T/C (dose: 200.0 mg/kg/injection, schedule: Q01DX009 (ip), vehicle: Klucel (hydroxypropylcellulose) (HPC)): 108 % of control
- T/C (dose: 400.0 mg/kg/injection, schedule: Q01DX009 (ip), vehicle: Klucel (hydroxypropylcellulose) (HPC)): 124 % of control

Compound: O=S(=O)(Nc1ncccn1)c1ccc(N=Nc2ccc(O)c3ncccc23)cc1
- T/C [1]: 100 % of control
- T/C [4]: 103 % of control
- T/C [7]: 103 % of control

Compound: N#CCCn1cnc2c(N)ncnc21
- T/C [2]: 96 % of control
- T/C [3]: 103 % of control
- T/C [5]: 96 % of control
- T/C [6]: 103 % of control
- T/C [8]: 91 % of control
- T/C [9]: 104 % of control

Compound: CC(=O)CC(=O)Nc1ccc(N=Nc2ccccc2)cc1
- T/C [3]: 93 % of control
- T/C [6]: 91 % of control
- T/C [9]: 91 % of control

Compound: N=C(N)SCCN1CCCCC1
- T/C (dose: 75.0 mg/kg/injection, schedule: Q01DX001 (ip), vehicle: acetone): 102 % of control
- T/C (dose: 150.0 mg/kg/injection, schedule: Q01DX001 (ip), vehicle: acetone): 100 % of control

Compound: c1cnc2c(c1)CCCC2
- T/C [11]: 86 % of control
- T/C [5]: 86 % of control

Compound: CC[C@@]1(O)c2cc3n(c(=O)c2CO[C@H]1O)Cc1cc2ccccc2nc1-3
- T/C (dose: 0.5 mg/kg/injection, schedule: Q01DX Z (ip), vehicle: saline): 96 % of control
- T/C (dose: 1.0 mg/kg/injection, schedule: Q01DX Z (ip), vehicle: saline): 94 % of control
- T/C (dose: 2.0 mg/kg/injection, schedule: Q01DX Z (ip), vehicle: saline): 97 % of control
- T/C (dose: 4.0 mg/kg/injection, schedule: Q01DX015 (ip), vehicle: saline): 104 % of control
- T/C (dose: 4.0 mg/kg/injection, schedule: Q01DX Z (ip), vehicle: saline): 97 % of control
- T/C (dose: 8.0 mg/kg/injection, schedule: Q01DX007 (ip), vehicle: other): 108 % of control
- T/C (dose: 8.0 mg/kg/injection, schedule: Q01DX012 (ip), vehicle: saline): 95 % of control
- T/C (dose: 8.0 mg/kg/injection, schedule: Q01DX015 (ip), vehicle: saline): 106 % of control
- T/C (dose: 16.0 mg/kg/injection, schedule: Q01DX007 (ip), vehicle: other): 112 % of control
- T/C (dose: 16.0 mg/kg/injection, schedule: Q01DX012 (ip), vehicle: saline): 108 % of control
- T/C (dose: 16.0 mg/kg/injection, schedule: Q01DX015 (ip), vehicle: saline): 150 % of control

Compound: O=C(NCCCN1CC1)C(=O)NNc1ccccc1
- T/C [20]: 102 % of control
- T/C [21]: 93 % of control

Compound: S=c1cc[nH]c(=S)[nH]1
- T/C (dose: 50.0 mg/kg/injection, schedule: Q04DX003 (ip), vehicle: Klucel (hydroxypropylcellulose) (HPC)): 97 % of control
- T/C [20]: 97 % of control
- T/C [21]: 95 % of control

Compound: OCC1OC(n2c(N3CCCCC3)nc3ccccc32)C(O)C1O (configuration not stated)
- T/C [1]: 102 % of control
- T/C [4]: 105 % of control
- T/C [7]: 105 % of control

Compound: N#CC(=C1C=CC(=NO)C=C1)c1ccc(Cl)cc1
- T/C [2]: 97 % of control
- T/C [3]: 96 % of control
- T/C [5]: 100 % of control
- T/C [6]: 107 % of control
- T/C [8]: 103 % of control
- T/C [9]: 91 % of control

Compound: COc1cccc(CCC(=O)O)c1
- T/C (dose: 100.0 mg/kg/injection, schedule: Q01DX009 (ip), vehicle: gum acacia): 107 % of control
- T/C (dose: 100.0 mg/kg/injection, schedule: Q04DX003 (ip), vehicle: gum acacia): 104 % of control
- T/C (dose: 200.0 mg/kg/injection, schedule: Q01DX009 (ip), vehicle: gum acacia): 107 % of control
- T/C (dose: 200.0 mg/kg/injection, schedule: Q04DX003 (ip), vehicle: gum acacia): 102 % of control
- T/C (dose: 400.0 mg/kg/injection, schedule: Q01DX009 (ip), vehicle: gum acacia): 98 % of control
- T/C (dose: 400.0 mg/kg/injection, schedule: Q04DX003 (ip), vehicle: gum acacia): 96 % of control
